The text below walks through data of patent US7186701B2, “Dehydrating agent and method for dehydrating moist article using the agent and dehydrated article obtained by the method” (Kabushiki Kaisha Hayashibara Seibutsu Kagaku Kenkyujo, priority 2001, dated 2007).

Data set [1] can be described thus: Dehydrating action: moisture absorption on standing at controlled relative humidity. The class given is physicochemical. Particulars: for moisture content (%) by the Karl Fisher method: 25° C. The source says: Anhydrous crystalline cyclotetrasaccharide; crystalline cyclotetrasaccharide, monohydrate; anhydrous amorphous cyclotetrasaccharide; and crystalline cyclotetrasaccharide, penta- or hexa-hydrate were experimented in detail on their dehydrating actions, particularly, moisture absorption abilities against saccharides and changes on standing. As a control, anhydrous crystalline α,α-trehalose, anhydrous amorphous α,α-trehalose, and crystalline α,α-trehalose, dihydrate, were used as saccharides. The experiments were as follows: […]

Data set [2] can be described thus: Dehydration and pulverization of plain yogurt by non-reducing saccharide. Set-up: unit not given here. How it is done: The anhydrous crystalline cyclotetrasaccharide; crystalline cyclotetrasaccharide, monohydrate; and anhydrous amorphous cyclotetrasaccharide were respectively prepared by the methods in Examples A-1, A-2, and A-3. As the crystalline α,α-trehalose, dihydrate, a commercially available “TREHA®” commercialized by Hayashibara Shoji Inc., Okayama, Japan, was used. The anhydrous crystalline α,α-trehalose and the anhydrous amorphous α,α-trehalose used in this experiment were prepared from a commercialized crystalline α,α-trehalose, dihydrate, using the methods disclosed in Examples for Reference 1 and 3 in Japanese Patent Kokai No. 170,221/94. To four parts by weight of a plain yogurt with a moisture content of about 77% was added either of the above saccharides in an amount of 11 to 16 parts by weight. The resultant mixtures were respectively placed in vats, allowed to stand at 25° C. for 24 hours, and macroscopically observed their change on standing. The judgement was conducted in such a manner of sufficiently dehydrating the resulting mixtures to be solidified, subjected to a pulverizer for pulverization, and evaluated as “◯”, when the solids were easily pulverized; “Δ”, when the dehydration of the resulting mixtures was rather insufficient and the pulverization of solids was substantially difficult, though the resulting mixtures were solidified; and “x”, when the dehydration of the resulting mixtures was insufficient and could not be pulverized by a pulverizer.

Data set [3] deals with α-isomaltosylglucosaccharide-forming enzyme. Put plainly: Specificity of transfer acceptor (C11 enzyme). It counts as biochemical, Bacillus globisporus C11 strain. Further details: key: −: no saccharide-transferred product was detected through transferring reaction to acceptor; ±: a saccharide-transferred product was detected in an amount of less than one percent through transfer reaction to acceptor; +: a saccharide-transferred product was detected in an amount of at least one percent but less than ten percent through transferring reaction to acceptor; ++: a saccharide-transferred product was detected in an amount of at least ten percent through transferring reaction to acceptor. To be noted: acceptor 1.6%, PINE-DEX #100 donor 4%, one unit/g donor, 30° C., pH 6.0, 24 hours. The protocol:
(§1) A variety of saccharides were tested whether they could be used as transferring-acceptors for the α-isomaltosylglucosaccharide-forming enzyme. A solution of D-glucose, D-xylose, L-xylose, D-galactose, D-fructose, D-mannose, D-arabinose, D-fucose, L-sorbose, L-rhamnose, methyl-α-glucopyranoside, methyl-β-glucopyranoside, N-acetyl-glucosamine, sorbitol, α,α-trehalose, isomaltose, isomaltotriose, cellobiose, gentibiose, maltitol, lactose, sucrose, α-cyclodextrin, β-cyclodextrin, or γ-cyclodextrin was prepared. […] The reaction mixtures after the enzymatic reactions were analyzed on gas chromatography (abbreviated as “GLC” hereinafter) for monosaccharides and disaccharides as acceptors, and on HPLC for trisaccharides and higher saccharides as acceptors to confirm whether these saccharides could be used as their transfer acceptors. In the case of performing GLC, the following apparatuses and conditions were used: […] In the case of HPLC analysis, the apparatuses and conditions used were: HPLC apparatus, “CCPD” commercialized by Tosoh Corporation, Tokyo, Japan; column, “ODS-AQ-303” commercialized by YMC Co., Ltd., Tokyo, Japan; eluent, water at a flow rate of 0.5 ml/min; and detection, a differential refractometer.

The test system is the same in data set [4]. Put plainly: Specificity of transfer acceptor (C9 enzyme). Further details: key: −: no saccharide-transferred product was detected through transferring reaction to acceptor; ±: a saccharide-transferred product was detected in an amount of less than one percent through transfer reaction to acceptor; +: a saccharide-transferred product was detected in an amount of at least one percent but less than ten percent through transferring reaction to acceptor; ++: a saccharide-transferred product was detected in an amount of at least ten percent through transferring reaction to acceptor. Particulars: acceptor 1.6%, PINE-DEX #100 donor 4%, one unit/g donor, 30° C., pH 6.0, 24 hours. It counts as biochemical, Bacillus globisporus C9 strain. The protocol:
as §1

Data set [5] relates to Aspergillus niger. The data set can be described thus: Bacterial contamination of gelatinized starch (gyuhi). To be noted: gyuhi with six parts by weight of saccharide, 25° C., open conditions. How it is done: The mixture was mixed with a mixer and further mixed to homogeneity with two parts by weight of a starch hydrolyzate, shaped, and roughly dried for two hours, while blowing 40° C. hot air to the contents, to obtain “gyuhi” (a rice paste with sugar).

The mark [6] stands for this setting: relative humidity 75%, 0 days after treatment.
Where [7] appears, read: relative humidity 75%, 1 day after treatment.
[8] abbreviates: relative humidity 75%, 2 days after treatment.
Where [9] appears, read: relative humidity 75%, 3 days after treatment.
[10] abbreviates: relative humidity 75%, 7 days after treatment.

Where two headings read alike, the source gives them in different places.

On to `OC[C@H]1O[C@@H]2OC[C@H]3O[C@H](O[C@@H]4[C@@H](O)[C@@H](OC[C@H]5O[C@H](O[C@H]([C@H]2O)[C@@H]1O)[C@H](O)[C@@H](O)[C@@H]5O)O[C@H](CO)[C@H]4O)[C@H](O)[C@@H](O)[C@@H]3O` [Saccharide C, anhydrous amorphous cyclotetrasaccharide], for which the “moisture content (%) by the Karl Fisher method” value (“moisture content (%)” for short) in data set [1] (relative humidity 60%, 0 days after treatment, listed as C) is listed as 0.3%; in data set [1] (relative humidity 60%, 1 day after treatment, listed as C), 13.7%; in data set [1] (relative humidity 60%, 2 days after treatment, listed as C) it was 13.8%; in data set [1] (relative humidity 60%, 3 days after treatment, listed as C), 13.9%; in data set [1] (relative humidity 60%, 7 days after treatment, listed as C), 14.1%; in data set [1] (relative humidity 75%, 0 days after treatment, listed as C) it was 0.3%. The “moisture content (%)” value was 14.2% in data set [1] (relative humidity 75%, 1 day after treatment, listed as C); 13.6% in data set [1] (relative humidity 75%, 2 days after treatment, listed as C); 13.7% in data set [1] (relative humidity 75%, 3 days after treatment, listed as C); 13.7% in data set [1] (relative humidity 75%, 7 days after treatment, listed as C). Moreover, in data set [1] (relative humidity of 60%, listed as anhydrous amorphous cyclotetrasaccharide), the “moisture absorption level, % of its weight” value (“moisture absorption level, %” for short) was “about 14%”. For the same molecule, the “Water content (before use)” value in data set [2] (listed as C) turned out to be 0.3.

`O.O.OC[C@H]1O[C@H](O[C@H]2O[C@H](CO)[C@@H](O)[C@H](O)[C@H]2O)[C@H](O)[C@@H](O)[C@@H]1O` [Saccharide G, crystalline α,α-trehalose, dihydrate, reference compound]: the “moisture content (%)” value in data set [1] (setting [6]) is 9.7%; in data set [1] (setting [7]), 9.7%; in data set [1] (setting [8]), 9.7%; in data set [1] (setting [9]), 9.8%; in data set [1] (setting [10]), 9.8%. In addition, the “Water content (before use)” value in data set [2] turned out to be 9.7.

As to “crystalline cyclotetrasaccharide, monohydrate [Saccharide B]”, the “moisture content (%)” value in data set [1] (relative humidity 60%, 0 days after treatment) amounted to 2.7%; in data set [1] (relative humidity 60%, 1 day after treatment), 2.7%; in data set [1] (relative humidity 60%, 2 days after treatment), 2.8%; in data set [1] (relative humidity 60%, 3 days after treatment) it was 2.8%; in data set [1] (relative humidity 60%, 7 days after treatment), 2.9%; in data set [1] (setting [6]), 2.7%. For the same molecule, the “moisture content (%)” value was found to be 14.0% in data set [1] (setting [7]), 14.0% in data set [1] (setting [8]), 14.1% in data set [1] (setting [9]) and 14.1% in data set [1] (setting [10]). The “moisture absorption level, %” value in data set [1] (relative humidity of 75%) was “about 14%”. Moreover, the “Water content (before use)” value in data set [2] is reported as 2.7.

In the case of `OC[C@H]1O[C@H](O[C@H]2O[C@H](CO)[C@@H](O)[C@H](O)[C@H]2O)[C@H](O)[C@@H](O)[C@@H]1O` [α,α-Trehalose, α,α-trehalose, reference compound], in data set [3], the “Product of saccharide transferring reaction, Enzyme of C11 strain” value (“Product … of C11 strain” for short) was “++ (a saccharide-transferred product was detected in an amount of at least ten percent through transferring reaction to acceptor)”. The “moisture absorption level, %” value in data set [1] (relative humidity of 75%) is on record as at most 10%. For the same molecule, the “Product of saccharide transferring reaction, Enzyme of C9 strain” value (from here on “Product … of C9 strain”) in data set [4] is “++ (a saccharide-transferred product was detected in an amount of at least ten percent through transferring reaction to acceptor)”.

For `OC[C@H]1O[C@H](O[C@H]2O[C@H](CO)[C@@H](O)[C@H](O)[C@H]2O)[C@H](O)[C@@H](O)[C@@H]1O` [Saccharide E, anhydrous crystalline α,α-trehalose, reference compound], the “moisture content (%)” value in data set [1] (relative humidity 75%, 0 days after treatment, listed as E) is reported as 0.3%; in data set [1] (relative humidity 75%, 1 day after treatment, listed as E), 9.7%; in data set [1] (relative humidity 75%, 2 days after treatment, listed as E) it was 9.6%; in data set [1] (setting [9]), 9.8%; in data set [1] (relative humidity 75%, 7 days after treatment, listed as E), 9.8%. Moreover, the “Water content (before use)” value in data set [2] (listed as E) is reported as 0.3.

“crystalline cyclotetrasaccharide, penta- or hexa-hydrate [Saccharide D]”: in data set [5], the “colonies of Aspergillus niger found in gyuhi, days on standing” value is listed as 15 days.

In the case of `OC[C@H]1O[C@H](O[C@H]2O[C@H](CO)[C@@H](O)[C@H](O)[C@H]2O)[C@H](O)[C@@H](O)[C@@H]1O` [Saccharide F, anhydrous amorphous α,α-trehalose, reference compound], the “moisture content (%)” value in data set [1] (relative humidity 75%, 0 days after treatment, listed as F) was found to be 0.8%; in data set [1] (relative humidity 75%, 1 day after treatment, listed as F), 9.8%; in data set [1] (relative humidity 75%, 2 days after treatment, listed as F), 9.7%; in data set [1] (relative humidity 75%, 7 days after treatment, listed as F) it was 9.7%. In addition, the “Water content (before use)” value in data set [2] (listed as F) is reported as 0.8.

Take `OC[C@H]1O[C@H](OC[C@H]2OC(O)[C@H](O)[C@@H](O)[C@@H]2O)[C@H](O)[C@@H](O)[C@@H]1O` (some centres unmarked) [Isomaltose, isomaltose]: the “Product … of C11 strain” value in data set [3] was “++ (a saccharide-transferred product was detected in an amount of at least ten percent through transferring reaction to acceptor)”. For the same molecule, in data set [4], the “Product … of C9 strain” value is “++ (a saccharide-transferred product was detected in an amount of at least ten percent through transferring reaction to acceptor)”.

As for `CO[C@@H]1O[C@H](CO)[C@@H](O)[C@H](O)[C@H]1O` [Methyl-β-glucopyranoside, methyl-β-glucopyranoside], the “Product … of C11 strain” value in data set [3] was “++ (a saccharide-transferred product was detected in an amount of at least ten percent through transferring reaction to acceptor)”. Besides, the “Product … of C9 strain” value in data set [4] was “++ (a saccharide-transferred product was detected in an amount of at least ten percent through transferring reaction to acceptor)”.

Take `O=C[C@@H](O)[C@@H](O)[C@H](O)[C@H](O)CO` [D-Mannose, D-mannose]: in data set [3], the “Product … of C11 strain” value is “−”. Besides, in data set [4], the “Product … of C9 strain” value is “−”.

For the molecule `O=C[C@H](O)[C@@H](O)[C@@H](O)[C@H](O)CO` [D-Galactose, D-galactose], in data set [3], the “Product … of C11 strain” value is listed as “+ (a saccharide-transferred product was detected in an amount of at least one percent but less than ten percent through transferring reaction to acceptor)”. Moreover, in data set [4], the “Product … of C9 strain” value is reported as “+ (a saccharide-transferred product was detected in an amount of at least one percent but less than ten percent through transferring reaction to acceptor)”.
